How the values were obtained:
CCRF-CEM = type: cell-based; conditions: Leukemia; 10^−5 molar; 48 hours; SRB
HL-60(TB) = type: cell-based; conditions: Leukemia; 10^−5 molar; 48 hours; SRB
K-562 = type: cell-based; conditions: Leukemia; 10^−5 molar; 48 hours; SRB
MOLT-4 = type: cell-based; conditions: Leukemia; 10^−5 molar; 48 hours; SRB
RPMI-8226 = type: cell-based; conditions: Leukemia; 10^−5 molar; 48 hours; SRB
SR = type: cell-based; conditions: Leukemia; 10^−5 molar; 48 hours; SRB
A549/ATCC = type: cell-based; conditions: Non-small cell lung cancer; 10^−5 molar; 48 hours; SRB
HOP-62 = type: cell-based; conditions: Non-small cell lung cancer; 10^−5 molar; 48 hours; SRB
HOP-92 = type: cell-based; conditions: Non-small cell lung cancer; 10^−5 molar; 48 hours; SRB
NCI-H226 = type: cell-based; conditions: Non-small cell lung cancer; 10^−5 molar; 48 hours; SRB
NCI-H23 = type: cell-based; conditions: Non-small cell lung cancer; 10^−5 molar; 48 hours; SRB
NCI-H460 = type: cell-based; conditions: Non-small cell lung cancer; 10^−5 molar; 48 hours; SRB
NCI-H522 = type: cell-based; conditions: Non-small cell lung cancer; 10^−5 molar; 48 hours; SRB
COLO 205 = type: cell-based; conditions: Colon cancer; 10^−5 molar; 48 hours; SRB
HCC-2998 = type: cell-based; conditions: Colon cancer; 10^−5 molar; 48 hours; SRB
HCT-116 = type: cell-based; conditions: Colon cancer; 10^−5 molar; 48 hours; SRB
HCT-15 = type: cell-based; conditions: Colon cancer; 10^−5 molar; 48 hours; SRB
HT29 = type: cell-based; conditions: Colon cancer; 10^−5 molar; 48 hours; SRB
KM12 = experiment: cells; type: cell-based; conditions: Colon cancer; 10^−5 molar; 48 hours; SRB
SW-620 = type: cell-based; conditions: Colon cancer; 10^−5 molar; 48 hours; SRB
SF-268 = type: cell-based; conditions: CNS cancer; 10^−5 molar; 48 hours; SRB
SF-295 = type: cell-based; conditions: CNS cancer; 10^−5 molar; 48 hours; SRB
SF-539 = type: cell-based; conditions: CNS cancer; 10^−5 molar; 48 hours; SRB
SNB-19 = type: cell-based; conditions: CNS cancer; 10^−5 molar; 48 hours; SRB
SNB-75 = type: cell-based; conditions: CNS cancer; 10^−5 molar; 48 hours; SRB
U251 = type: cell-based; conditions: CNS cancer; 10^−5 molar; 48 hours; SRB
LOX IMVI = type: cell-based; conditions: Melanoma; 10^−5 molar; 48 hours; SRB
MALME-3M = type: cell-based; conditions: Melanoma; 10^−5 molar; 48 hours; SRB
M14 = type: cell-based; conditions: Melanoma; 10^−5 molar; 48 hours; SRB
MDA-MB-435 = type: cell-based; conditions: Melanoma; 10^−5 molar; 48 hours; SRB
SK-MEL-2 = type: cell-based; conditions: Melanoma; 10^−5 molar; 48 hours; SRB
SK-MEL-28 = type: cell-based; conditions: Melanoma; 10^−5 molar; 48 hours; SRB
SK-MEL-5 = type: cell-based; conditions: Melanoma; 10^−5 molar; 48 hours; SRB
UACC-257 = type: cell-based; conditions: Melanoma; 10^−5 molar; 48 hours; SRB
UACC-62 = type: cell-based; conditions: Melanoma; 10^−5 molar; 48 hours; SRB
IGROV1 = type: cell-based; conditions: Ovarian cancer; 10^−5 molar; 48 hours; SRB
OVCAR-3 = type: cell-based; conditions: Ovarian cancer; 10^−5 molar; 48 hours; SRB
OVCAR-4 = type: cell-based; conditions: Ovarian cancer; 10^−5 molar; 48 hours; SRB
OVCAR-5 = type: cell-based; conditions: Ovarian cancer; 10^−5 molar; 48 hours; SRB
OVCAR-8 = type: cell-based; conditions: Ovarian cancer; 10^−5 molar; 48 hours; SRB
NCI/ADR-RES = type: cell-based; conditions: Ovarian cancer; 10^−5 molar; 48 hours; SRB
SK-OV-3 = type: cell-based; conditions: Ovarian cancer; 10^−5 molar; 48 hours; SRB
786-0 = type: cell-based; conditions: Renal cancer; 10^−5 molar; 48 hours; SRB
A498 = type: cell-based; conditions: Renal cancer; 10^−5 molar; 48 hours; SRB
ACHN = type: cell-based; conditions: Renal cancer; 10^−5 molar; 48 hours; SRB
CAKI-1 = type: cell-based; conditions: Renal cancer; 10^−5 molar; 48 hours; SRB
RXF 393 = type: cell-based; conditions: Renal cancer; 10^−5 molar; 48 hours; SRB
SN12C = type: cell-based; conditions: Renal cancer; 10^−5 molar; 48 hours; SRB
TK-10 = type: cell-based; conditions: Renal cancer; 10^−5 molar; 48 hours; SRB
UO-31 = type: cell-based; conditions: Renal cancer; 10^−5 molar; 48 hours; SRB
PC-3 = type: cell-based; conditions: Prostate cancer; 10^−5 molar; 48 hours; SRB
DU-145 = type: cell-based; conditions: Prostate cancer; 10^−5 molar; 48 hours; SRB
MCF7 = type: cell-based; conditions: Breast cancer; 10^−5 molar; 48 hours; SRB
MDA-MB-231/ATCC = type: cell-based; conditions: Breast cancer; 10^−5 molar; 48 hours; SRB
HS 578T = type: cell-based; conditions: Breast cancer; 10^−5 molar; 48 hours; SRB
BT-549 = type: cell-based; conditions: Breast cancer; 10^−5 molar; 48 hours; SRB
T-47D = type: cell-based; conditions: Breast cancer; 10^−5 molar; 48 hours; SRB
MDA-MB-486 = type: cell-based; conditions: Breast cancer; 10^−5 molar; 48 hours; SRB
60 cancer cell lines = experiment: NCI 60-cell screen, SRB, whole panel (mean, delta, range); type: cell-based; conditions: 10^−5 molar, 48 hours, SRB; for Growth percent, Delta: delta over the cell panel; for Growth percent, Mean: mean over the cell panel; for Growth percent, Range: range over the cell panel

O=c1c2ccc(Cl)cc2sc2c(Cl)nc3ccccc3c12 [Compound 3, 6,9-Dichloro-12H-thiochromeno[2,3-c]quinolin-12-one]
Growth percent CCRF-CEM (CCRF-CEM): 93.12%
Growth percent HL-60(TB) (HL-60(TB)): 99.34%
Growth percent K-562 (K-562): 101.04%
Growth percent MOLT-4 (MOLT-4): 98.04%
Growth percent RPMI-8226 (RPMI-8226): 100.19%
Growth percent SR (SR): 89.02%
Growth percent A549/ATCC (A549/ATCC): 104.74%
Growth percent HOP-62 (HOP-62): 82.02%
Growth percent HOP-92 (HOP-92): 90.83%
Growth percent NCI-H226 (NCI-H226): 83.41%
Growth percent NCI-H23 (NCI-H23): 85.12%
Growth percent NCI-H460 (NCI-H460): 103.14%
Growth percent NCI-H522 (NCI-H522): 96.81%
Growth percent COLO 205 (COLO 205): 112.15%
Growth percent HCC-2998 (HCC-2998): 123.28%
Growth percent HCT-116 (HCT-116): 102.27%
Growth percent HCT-15 (HCT-15): 102.28%
Growth percent HT29 (HT29): 99.73%
Growth percent KM12 (KM12): 111.27%
Growth percent SW-620 (SW-620): 99.06%
Growth percent SF-268 (SF-268): 109.60%
Growth percent SF-295 (SF-295): 90.26%
Growth percent SF-539 (SF-539): 89.02%
Growth percent SNB-19 (SNB-19): 107.89%
Growth percent SNB-75 (SNB-75): 77.88%
Growth percent U251 (U251): 101.71%
Growth percent LOX IMVI (LOX IMVI): 90.53%
Growth percent MALME-3M (MALME-3M): 95.87%
Growth percent M14 (M14): 106.18%
Growth percent MDA-MB-435 (MDA-MB-435): 100.64%
Growth percent SK-MEL-2 (SK-MEL-2): 95.54%
Growth percent SK-MEL-28 (SK-MEL-28): 101.80%
Growth percent SK-MEL-5 (SK-MEL-5): 97.42%
Growth percent UACC-257 (UACC-257): 104.47%
Growth percent UACC-62 (UACC-62): 89.69%
Growth percent IGROV1 (IGROV1): 96.06%
Growth percent OVCAR-3 (OVCAR-3): 111.27%
Growth percent OVCAR-4 (OVCAR-4): 87.91%
Growth percent OVCAR-5 (OVCAR-5): 100.07%
Growth percent OVCAR-8 (OVCAR-8): 101.62%
Growth percent NCI/ADR-RES (NCI/ADR-RES): 102.80%
Growth percent SK-OV-3 (SK-OV-3): 101.32%
Growth percent 786-0 (786-0): 105.25%
Growth percent A498 (A498): 106.06%
Growth percent ACHN (ACHN): 86.84%
Growth percent CAKI-1 (CAKI-1): 94.31%
Growth percent RXF 393 (RXF 393): 102.55%
Growth percent SN12C (SN12C): 95.92%
Growth percent TK-10 (TK-10): 108.56%
Growth percent UO-31 (UO-31): 66.06%
Growth percent PC-3 (PC-3): 91.59%
Growth percent DU-145 (DU-145): 114.27%
Growth percent MCF7 (Table 2: MCF) (MCF7): 82.58%
Growth percent MDA-MB-231/ATCC (MDA-MB-231/ATCC): 84.28%
Growth percent HS 578T (HS 578T): 95.14%
Growth percent BT-549 (BT-549): 110.01%
Growth percent T-47D (T-47D): 110.10%
Growth percent MDA-MB-486 (MDA-MB-486): 98.57%
Growth percent, Delta (60 cancer cell lines): 32.05%
Growth percent, Mean (60 cancer cell lines): 98.11%
Growth percent, Range (60 cancer cell lines): 57.22%
melting point: 259 to 261 °C

CCC(CO)Nc1nc2ccccc2c2c(=O)c3cc(Cl)ccc3sc12 (centres unmarked) [Compound N12, 10-Chloro-6-((1-hydroxybutan-2-yl)amino)-12H-thiochromeno[2,3-c]quinolin-12-one]
Growth percent CCRF-CEM (CCRF-CEM): 70.00%
Growth percent HL-60(TB) (HL-60(TB)): 96.29%
Growth percent K-562 (K-562): 46.86%
Growth percent MOLT-4 (MOLT-4): 61.79%
Growth percent RPMI-8226 (RPMI-8226): 73.50%
Growth percent SR (SR): 62.38%
Growth percent A549/ATCC (A549/ATCC): 69.86%
Growth percent HOP-62 (HOP-62): 55.91%
Growth percent NCI-H226 (NCI-H226): 77.56%
Growth percent NCI-H23 (NCI-H23): 81.25%
Growth percent NCI-H460 (NCI-H460): 83.78%
Growth percent NCI-H522 (NCI-H522): 64.07%
Growth percent COLO 205 (COLO 205): 68.37%
Growth percent HCC-2998 (HCC-2998): 99.61%
Growth percent HCT-116 (HCT-116): 73.42%
Growth percent HCT-15 (HCT-15): 77.58%
Growth percent HT29 (HT29): 78.24%
Growth percent KM12 (KM12): 82.37%
Growth percent SW-620 (SW-620): 84.32%
Growth percent SF-268 (SF-268): 76.71%
Growth percent SF-295 (SF-295): 89.58%
Growth percent SF-539 (SF-539): 83.86%
Growth percent SNB-19 (SNB-19): 93.87%
Growth percent SNB-75 (SNB-75): 31.01%
Growth percent U251 (U251): 74.49%
Growth percent LOX IMVI (LOX IMVI): 79.25%
Growth percent MALME-3M (MALME-3M): 58.66%
Growth percent M14 (M14): 85.38%
Growth percent MDA-MB-435 (MDA-MB-435): 92.11%
Growth percent SK-MEL-28 (SK-MEL-28): 82.86%
Growth percent SK-MEL-5 (SK-MEL-5): 87.19%
Growth percent UACC-257 (UACC-257): 95.71%
Growth percent UACC-62 (UACC-62): 76.17%
Growth percent IGROV1 (IGROV1): 66.54%
Growth percent OVCAR-3 (OVCAR-3): 96.34%
Growth percent OVCAR-4 (OVCAR-4): 83.23%
Growth percent OVCAR-5 (OVCAR-5): 88.01%
Growth percent OVCAR-8 (OVCAR-8): 68.74%
Growth percent NCI/ADR-RES (NCI/ADR-RES): 77.02%
Growth percent SK-OV-3 (SK-OV-3): 58.93%
Growth percent 786-0 (786-0): 82.86%
Growth percent A498 (A498): 74.62%
Growth percent ACHN (ACHN): 69.12%
Growth percent CAKI-1 (CAKI-1): 59.29%
Growth percent RXF 393 (RXF 393): 71.61%
Growth percent SN12C (SN12C): 81.98%
Growth percent TK-10 (TK-10): 77.45%
Growth percent UO-31 (UO-31): 51.01%
Growth percent PC-3 (PC-3): 58.35%
Growth percent DU-145 (DU-145): 87.04%
Growth percent MCF7 (Table 2: MCF) (MCF7): 40.92%
Growth percent MDA-MB-231/ATCC (MDA-MB-231/ATCC): 58.29%
Growth percent HS 578T (HS 578T): 52.66%
Growth percent BT-549 (BT-549): 85.96%
Growth percent T-47D (T-47D): 46.94%
Growth percent MDA-MB-486 (MDA-MB-486): 80.85%
Growth percent, Delta (60 cancer cell lines): 42.51%
Growth percent, Mean (60 cancer cell lines): 73.52%
Growth percent, Range (60 cancer cell lines): 68.60%
melting point: 203 to 204 °C

Reference: patent publication US8927717B1, “Thiochromeno[2,3-c]quinolin-12-one derivatives, preparation method and application thereof” (National Defense Medical Center, priority 2014, dated 2015)
